Reference: ChEMBL document CHEMBL4402559, “Structure-Based Design and Pharmacokinetic Optimization of Covalent Allosteric Inhibitors of the Mutant GTPase KRASG12C” (J Med Chem, 2020)

Assays:
[1] = Distribution coefficient, log D of compound at pH 7.4; format: physicochemical; conditions: octanol/water
[2] = Intrinsic clearance in rat hepatocytes assessed per 10^-6 cells; format: ADME, cell-based, Hepatocyte
[3] = Intrinsic clearance in human liver microsomes; format: ADME, Microsome; conditions: for microsomal CLint: liver microsomes, read-out: CLH
[4] = Efflux ratio of apparent permeability in human Caco2 cells at 10 uM at pH 7.4; format: ADME, cell-based; conditions: Caco-2, pH 7.4
GTPase KRas = GTPase KRas (Homo sapiens, UniProt P01116, G12C); test: Inhibition of GDP bound biotinylated human C-terminal Avi/His6-tagged KRAS G12C mutant (1 to 166 residues) expressed in Escherichia coli BL21 (DE3) assessed as reduction in SOS1-mediated GDP/GTP nucleotide exchange by preventing recognition between KRAS G12C mutant and Ras binding domain of N-terminal Avi/GST-tagged Raf-1 (51 to 149 residues) preincubated for 4 hrs followed by SOS1 and GTPgammaS addition by FRET assay
[5] = GSH reactivity in PBS buffer assessed as half life at pH 7.4 and 37 degree C in presence of glutathione; format: physicochemical; conditions: PBS buffer with glutathione
[6] = Clearance in Han Wistar rat at 2 umol/kg, po or 1 umol/kg, iv; conditions: in vivo
[7] = Volume of distribution at steady state in Han Wistar rat at 2 umol/kg, po or 1 umol/kg, iv; conditions: in vivo
in vivo = conditions: Han Wistar, rat, po, 2 umol/kg

clearance [6] [mL/min/kg]	Vd [7] [L/kg]	bioavailability (in vivo) [%]	SMILES	logD ([1]; read-out: logD)	hepatocyte intrinsic clearance [2] [µL/min]	microsomal CLint [3] [µL/min/mg]	efflux ratio at 10 µM [4]	IC50 (GTPase KRas) [nM]	logD [1]	Intrinsic clearance in human liver microsomes [3] [µL/min/mg]	half-life [5] [h]
			C=CC(=O)N1CCN2c3c(cnc4cc(-c5c(O)cccc5F)c(Cl)cc34)NC[C@H]2C1	3.3	17	18	1.4				
			C=CC(=O)N1CCN2c3c(cnc4cc(-c5c(C)ccc6[nH]ncc56)c(Cl)cc34)OC[C@H]2C1 (single isomer, unassigned; atropisomer 2)		65			1380	> 4.2	46	
			C=CC(=O)N1CCN2c3c(cnc4cc(-c5c(C)ccc6[nH]ncc56)c(Cl)cc34)OC[C@@H]2C1 (single isomer, unassigned; atropisomer 2)	4.3	75	103		610			
35	1.2	64	C=CC(=O)N1CCN2c3c(cnc4cc(-c5c(O)cccc5F)c(Cl)cc34)OC[C@H]2C1	3.6	32	25	0.5				6.93
			C=CC(=O)N1CCN2c3c(cnc4cc(-c5c(C)ccc6[nH]ncc56)c(Cl)cc34)OC[C@@H]2C1 (single isomer, unassigned; atropisomer 1)		67			8860	4	121	
			C=CC(=O)N1CCN2c3c(cnc4cc(-c5c(O)cccc5F)c(Cl)cc34)N(C)C(=O)[C@H]2C1	3	7	24	0.9	150			
			C=CC(=O)N1CCN2c3c(cnc4cc(-c5c(O)cccc5F)c(Cl)cc34)NC(=O)[C@H]2C1	3	11	34	17.9	73			
			C=CC(=O)N1CCN2c3c(cnc4c(F)c(-c5c(O)cccc5F)c(Cl)cc34)OC[C@H]2C1 (atropisomer aR)	3.4	22	17		16			
			C=CC(=O)N1C[C@@H]2COc3cnc4cc(-c5c(O)cccc5F)c(Cl)cc4c3N2C[C@@H]1C	3.7	74	100		7650			9.75
